The source of these data is PubChem BioAssay (NCI).

Common to all, as to test: NCI tumour cell line growth inhibition, 48 h
Assay [1] relates to MOLT-4 leukemia.
Assay [2] relates to A549 NSCLC.
Assay [3] deals with HOP-92 NSCLC.
In assay [4] the test system is NCI-H226 lung.
In assay [5] the test system is MDA-N.
For assay [6], the system named is U251 CNS.
Assay [7] relates to RPMI-8226 leukemia.
Assay [8] relates to MALME-3M melanoma.

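Values below derive from 48-hour exposures of cells grown in 96-well plates, with endpoints linearly interpolated between the two concentrations bracketing the appropriate inhibition level. GI50: concentration for 50% inhibition of growth. The concentration for full growth arrest is given as TGI.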

In the case of `COC(=O)C1=C(C(=O)OC)SC2(S1)C(C(=O)OC)=C(C(=O)OC)Sc1c2ssc1=Nc1ccc(Cl)cc1`, the TGI in assay [1] came to 5.04 µM; in assay [2] it was 3.13 µM; in assay [3], 1.93 µM; in assay [4] it was 3.38 µM; in assay [5], 1.69 µM; in assay [6], 2.64 µM.

Turning to `COC(=O)C1(C(=O)OC)N=C(C)OC1/C=C/c1ccccc1` (stereo unspecified), the TGI in assay [1], in assay [2], in assay [3], in assay [7], in assay [4] and in assay [5] was > 100 µM each time. In addition, in assay [6], the TGI was > 100 µM.

As for `CCOC(=O)c1[nH]cc(C)c1-c1ccc2c(-c3ccccc3)nc3ccccc3n12`, the TGI in assay [1] was 9.25 µM; in assay [2], 18.5 µM; in assay [3], 14 µM; in assay [4], 20.1 µM; in assay [5], 14.1 µM; in assay [6] it was 11.8 µM.

As for `COP(=O)(OC)C(O)CC(C)C` (stereo unspecified), the TGI in assay [1], in assay [2], in assay [7], in assay [4], in assay [5] and in assay [6] was > 100 µM throughout.

On to `CN1CCN(Cc2ccc(NC(=O)c3cccc(C#Cc4cnc(N)c5ncccc45)c3F)cc2C(F)(F)F)CC1`, for which the GI50 was 0.77 µM in assay [1]; 0.747 µM in assay [2]; 1.27 µM in assay [3]; 2.28 µM in assay [7]; 0.647 µM in assay [4]; 0.675 µM in assay [8]. Besides, in assay [6], the GI50 was 0.741 µM. Moreover, the TGI in assay [1] is 3.06 µM; in assay [2] it was 1.58 µM; in assay [3], 4.63 µM; in assay [7], 13.2 µM; in assay [4], 1.97 µM; in assay [8], 1.4 µM. The TGI in assay [6] is 1.43 µM.

Consider `CCOP(=O)(OCC)/C(C#N)=C/c1cnc[nH]1`, for which the TGI in assay [1], in assay [2], in assay [3], in assay [7], in assay [4] and in assay [8] was > 100 µM each time. The TGI in assay [6] is > 100 µM.

In the case of `CC(=O)C1=C(C)N(c2ccc(C)cc2)C2(O)C3=C(C(=O)c4ccccc4C3=O)C(O)=CC12Cl` (stereo unspecified), the TGI is > 100 µM in assay [1]; > 100 µM in assay [2]; > 100 µM in assay [3]; > 100 µM in assay [7]; > 100 µM in assay [4]; 36.5 µM in assay [8]. In assay [6], the TGI is > 100 µM.

For the compound `COc1ccccc1/C=C1\NC(=S)N(/C=C2\C(=O)Oc3ccccc3C2=O)C1=O`, the TGI in assay [1] is 72.6 µM; in assay [2], > 100 µM; in assay [3], 53.3 µM; in assay [4], > 100 µM; in assay [6], > 100 µM.

Take `CC(C)(CCCCC(C)(C)[N+](C)(C)C)[N+](C)(C)C`: the TGI in assay [1], in assay [2], in assay [7], in assay [5] and in assay [6] was > 100 µM each time.

Take `Cc1cccc(-c2cc(=O)c3c(C)cc(C)nc3[nH]2)c1`: the TGI in assay [1] is > 100 µM; in assay [2], > 100 µM; in assay [3], > 100 µM; in assay [7] it was > 52.1 µM; in assay [4] it was 31.4 µM; in assay [8], > 100 µM. Further, the TGI in assay [6] was found to be 37.6 µM.

`O=C(O)CCCc1ccc2ccccc2c1`: the TGI in assay [1], in assay [2], in assay [3], in assay [7], in assay [5] and in assay [6] was > 100 µM throughout.

Turning to `CSc1ccc(/C=C2\N=C(c3ccccc3)N(c3nc4cc(C)c(C)cc4s3)C2=O)cc1`, the TGI in assay [1] is > 100 µM; in assay [2], 89.7 µM; in assay [3], 73.3 µM; in assay [7] it was > 100 µM; in assay [5], 33.3 µM; in assay [6], 36.5 µM.

As to `C1CC[C@H]2SSC3CCCC[C@H]3SSC2C1` (stereo partly specified), the TGI in assay [1], in assay [2], in assay [3], in assay [7], in assay [5] and in assay [6] was > 100 µM in each case.

With `COc1ccc(C2C3CCc4ccccc4C3=NN2S(=O)(=O)c2ccc(/C=C/C(=O)O)cc2)cc1` (stereo unspecified), the TGI is 25.3 µM in assay [1]; 54.4 µM in assay [2]; > 100 µM in assay [3]; 16 µM in assay [7]; 74.7 µM in assay [4]; 23.1 µM in assay [8]. In assay [6], this compound gave a TGI of 11.6 µM.

As to `O=C1CSC(c2c[nH]c3ccccc23)N1c1ccccc1[N+](=O)[O-]` (stereo unspecified), the TGI in assay [1], in assay [2], in assay [3], in assay [7], in assay [5] and in assay [6] was > 100 µM throughout.
